Where a name gives a salt, the structure may show the parent alone. Read-outs that look alike come from different tables or passages of the source. One block for each molecule: values may come before it.
Columns and labels:
[1] = tested on: Her2; assay: Degradation of Her2 in BT-474 cells, Western blot (Method 1); assay type: cell-based, human; conditions: 0.5 μM, overnight, positive control
Experimental: Human high-Her2 breast carcinoma BT474 (HTB-20), SK-BR-3 (HTB-30) and MCF-7 breast carcinoma (HTB-22) from American Type Culture Collection, VA, USA were grown in Dulbecco's modified Eagle's medium with 4 mM L-glutamine and antibiotics ([…] penicillin and 100 ug/ml streptomycine; GibcoBRL). To obtain exponential cell growth, cells were trypsinized, counted and seeded at a cell density of 0.5×10^6 cells/ml regularly, every 3 days. All experiments were performed on day 1 after cell passage.
BT-474 cells are treated with 0.5 μM, 2 μM, or 5 μM of 17AAG (a positive control) or 0.5 μM, 2 μM, or 5 μM of a compound of the invention overnight in DMEM medium. After treatment, each cytoplasmic sample is prepared from 1×10^6 cells by incubation of cell lysis buffer (#9803, cell Signaling Technology) on ice for 10 minutes. The resulting supernatant used as the cytosol fractions is dissolved with sample buffer for SDS-PAGE and run on a SDS-PAGE gel, blotted onto a nitrocellulose membrane by using semi-dry transfer. Non-specific binding to nitrocellulose is blocked with 5% skim milk in TBS with 0.5% Tween at room temperature for 1 hour, then probed with anti-Her2/ErB2 mAb (rabbit IgG, #2242, Cell Signaling) and anti-Tubulin (T9026, Sigma) as housekeeping control protein. […]

[2] = tested on: Hsp90; assay: IC50 of compounds of the invention, Example B Method 2 (Tables 6-9); assay type: cell-based, human; conditions: Her2 degradation / inhibition of Hsp90, Method 2: MV-4-11 cells, 72 hours, Cell Counting Kit-8

Structure (SMILES): C=CCNC1=C2C[C@@H](C)C[C@H](OC)[C@H](O)[C@@H](C)/C=C(\C)[C@H](OC(N)=O)[C@@H](OC)/C=C\C=C(/C)C(=O)NC(=CC1=O)C2=O [Compound 17AAG, 17-allylamino-17-demethoxygeldanamycin]
degradation of Her2 [1]: partial degradation

IC50 ([2]; Table 7, read-out: IC50): 1400 nM
Structure (SMILES): CCCC(=O)Nc1nnc(-c2cc(C(C)C)c(O)cc2O)n1-c1ccc2c(ccn2C)c1 [Compound 12a, N-(5-(2,4-dihydroxy-5-isopropylphenyl)-4-(1-methyl-1H-indol-5-yl)-4H-1,2,4-triazol-3-yl)butyramide]

IC50 ([2]; Table 7, read-out: IC50): 1400 nM
Structure (SMILES): CC(C)c1cc(-c2nnc(Nc3ccccc3)n2-c2ccc3c(ccn3C)c2)c(O)cc1O [Compound 1a, 4-Isopropyl-6-[4-(1-methyl-1H-indol-5-yl)-5-phenylamino-4H-[1,2,4]triazol-3-yl]-benzene-1,3-diol]

Structure (SMILES): CC(C)c1cc(-c2nnc(O)n2-c2ccc(N(C)S(C)(=O)=O)cc2)c(O)cc1O [Compound 17d, N-(4-(3-(2,4-dihydroxy-5-isopropylphenyl)-5-hydroxy-4H-1,2,4-triazol-4-yl)phenyl)-N-methylmethanesulfonamide]
IC50 ([2]; Table 9, read-out: IC50 Range): 85 nM

IC50 ([2]; Table 8, read-out: IC50): 56 nM
Structure (SMILES): CC(N)C(=O)Oc1cc(OC(=O)C(C)N)c(C(C)C)cc1-c1nn(C(=O)C(C)N)c(=O)n1-c1ccc2c(ccn2C)c1 (stereo not shown) [Compound 16b, 4-(1-(2-aminopropanoyl)-4-(1-methyl-1H-indol-5-yl)-5-oxo-4,5-dihydro-1H-1,2,4-triazol-3-yl)-6-isopropyl-1,3-phenylene bis(2-aminopropanoate) trihydrochloride]

IC50 ([2]; Table 9, read-out: IC50 Range): 336 nM
Structure (SMILES): CC(C)c1cc(-c2nnc(S)n2-c2cccc(S(N)(=O)=O)c2)c(O)cc1O [Compound 14d, 3-(3-(2,4-dihydroxy-5-isopropylphenyl)-5-mercapto-4H-1,2,4-triazol-4-yl)benzenesulfonamide]

IC50 ([2]; Table 7, read-out: IC50): 382 nM
Structure (SMILES): CC(=O)Nc1nnc(-c2cc(C(C)C)c(O)cc2O)n1-c1ccc2c(ccn2C)c1 [Compound 11a, N-(5-(2,4-dihydroxy-5-isopropylphenyl)-4-(1-methyl-1H-indol-5-yl)-4H-1,2,4-triazol-3-yl)acetamide]
